Data reported in patent publication US11292782B2, “Diarylhydantoin compounds and methods of use thereof” (Nuvation Bio Inc., priority 2018, dated 2022).
Like-named read-outs stand apart in the source and are kept apart here.

How the values were obtained:
Type in all cases: cell-based
Human AR = Human AR (Homo sapiens (Human), UniProt P10275); experiment: AR antagonist assay (GRE-LUC luciferase, transfected HEK-293 cells, with 0.1 nM R1881); conditions: for IC50: with 0.1 nM R1881; for inhibition at 1 µM: HEK293
Human AR, sequence (P10275 whole entry): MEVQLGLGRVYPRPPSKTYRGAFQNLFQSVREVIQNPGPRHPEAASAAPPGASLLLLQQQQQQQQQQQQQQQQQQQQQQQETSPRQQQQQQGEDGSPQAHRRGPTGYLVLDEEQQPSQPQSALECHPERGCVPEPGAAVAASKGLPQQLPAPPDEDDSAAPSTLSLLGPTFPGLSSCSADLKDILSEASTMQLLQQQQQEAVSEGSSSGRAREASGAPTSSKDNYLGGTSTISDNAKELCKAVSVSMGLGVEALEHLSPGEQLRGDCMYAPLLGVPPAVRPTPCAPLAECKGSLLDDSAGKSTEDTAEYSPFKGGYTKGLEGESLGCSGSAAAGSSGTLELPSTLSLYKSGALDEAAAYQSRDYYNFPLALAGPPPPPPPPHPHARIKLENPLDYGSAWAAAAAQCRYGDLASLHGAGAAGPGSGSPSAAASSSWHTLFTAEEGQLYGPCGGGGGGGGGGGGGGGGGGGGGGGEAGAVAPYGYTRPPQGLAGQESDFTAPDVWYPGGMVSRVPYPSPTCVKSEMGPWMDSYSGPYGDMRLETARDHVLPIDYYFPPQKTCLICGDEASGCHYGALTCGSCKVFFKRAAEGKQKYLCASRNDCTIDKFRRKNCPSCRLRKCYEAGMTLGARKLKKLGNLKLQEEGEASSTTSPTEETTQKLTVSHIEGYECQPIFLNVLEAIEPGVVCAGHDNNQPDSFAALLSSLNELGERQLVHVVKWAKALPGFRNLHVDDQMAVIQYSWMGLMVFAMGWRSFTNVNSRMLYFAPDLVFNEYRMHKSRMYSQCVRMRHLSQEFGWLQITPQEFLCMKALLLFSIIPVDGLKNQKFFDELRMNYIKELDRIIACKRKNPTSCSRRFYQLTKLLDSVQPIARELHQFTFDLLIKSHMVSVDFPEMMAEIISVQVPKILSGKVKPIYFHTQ
Protocol: Human AR cDNA cloned into pCMV vector, GRE-LUC, and CMV-renilla-LUC were used to transfect cells. HEK-293 cells (ATCC) were plated at 120,000 cells per well of a 24 well plate in DME+5% csFBS (Fisher Scientific, Waltham, Mass.). The cells were transfected using Lipofectamine (Life Technologies, Carlsbad, Calif.) with 0.25 μg GRE-LUC, 0.010 μg CMV-LUC (renilla luciferase) and 25 ng of the AR. […] Luciferase assay was performed 48 hrs after transfection. Firefly luciferase assay values were normalized to renilla luciferase values and were graphed using graphpad prism software (La Jolla, Calif.). […] The IC50 or EC50 values were determined using non-linear regression and […] logistics fitting.

GR = GR (Homo sapiens (Human), UniProt P04150); experiment: GR antagonist assay (GRE-LUC luciferase, transfected COS-7 cells, with 0.1 nM dexamethasone); conditions: for IC50 / GR antagonist assay, % of vehicle: in the presence of 0.1 nM dexamethasone; for inhibition at 10 µM: COS-7, read-out: GR Antagonism % inhibition at 10 μM; for GR antagonist assay, % of vehicle: 10 μM
GR, sequence (P04150 whole entry): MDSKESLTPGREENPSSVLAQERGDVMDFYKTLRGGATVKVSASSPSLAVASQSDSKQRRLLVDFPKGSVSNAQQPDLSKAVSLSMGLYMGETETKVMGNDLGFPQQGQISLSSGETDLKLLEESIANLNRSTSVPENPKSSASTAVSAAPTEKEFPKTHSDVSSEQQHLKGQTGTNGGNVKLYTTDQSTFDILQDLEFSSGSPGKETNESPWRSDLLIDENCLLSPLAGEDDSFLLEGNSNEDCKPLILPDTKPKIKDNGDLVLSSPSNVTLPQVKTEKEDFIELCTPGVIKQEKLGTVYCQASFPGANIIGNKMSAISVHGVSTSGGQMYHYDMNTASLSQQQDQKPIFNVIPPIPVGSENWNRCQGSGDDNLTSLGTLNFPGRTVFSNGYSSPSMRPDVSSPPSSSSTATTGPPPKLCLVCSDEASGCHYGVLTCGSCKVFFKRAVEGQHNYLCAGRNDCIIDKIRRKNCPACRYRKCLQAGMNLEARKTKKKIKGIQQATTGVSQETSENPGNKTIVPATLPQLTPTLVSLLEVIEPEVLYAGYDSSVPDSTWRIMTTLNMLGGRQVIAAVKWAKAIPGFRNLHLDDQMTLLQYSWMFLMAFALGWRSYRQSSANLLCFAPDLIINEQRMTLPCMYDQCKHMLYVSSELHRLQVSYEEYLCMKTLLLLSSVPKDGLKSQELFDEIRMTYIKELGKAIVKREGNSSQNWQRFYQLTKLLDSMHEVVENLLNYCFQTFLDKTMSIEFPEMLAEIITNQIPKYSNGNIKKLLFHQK
Protocol: COS-7 cells (ATCC, Manassas, Va.) were plated in 24 well plates in DME+5% csFBS without phenol red at 70,000 cells/well. Once the cells attached to the plates (typically after overnight incubation after plating), they were transfected in OPTIMEM medium (Life Technologies) using lipofectamine reagent (Life Technologies) with 0.25 μg GRE-LUC, 25 ng pCR3.1 GR, and 10 ng CMV-renilla LUC per well. Twenty-four hours after transfection, the cells were fed with DME+5% csFBS without phenol red (Fisher Scientific, Waltham, Mass.) and treated with the test compounds (1 pM to 10 μM dose range) in the presence of 0.1 nM dexamethasone (Sigma, St. Louis, Mo.). Sixteen to twenty-four hours after treatment, a luciferase assay was performed using the Dual Luciferase assay kit (Promega, Madison, Wis.). Firefly luciferase values were normalized to Renilla luciferase numbers.

LNCaP-abl cells = experiment: Cell proliferation assay, LNCaP-abl (CellTiter-Glo); conditions: 72 h, 3 days; for activity at 3 µM: read-out: cell proliferation, % of vehicle at 3 μM; for activity at 10 µM: read-out: cell proliferation, % of vehicle at 10 μM
Protocol: LNCaP-abl (3,000 cells/well, received from Dr. Myles Brown, Dana Farber Cancer Institute), 22RV1 (1,000 cells/well), LNCaP (5,000 cells/well), or COS (3,000 cells/well) cells were plated in 96 well plates in 50 μl RPMI+10% FBS (Fisher Scientific, Waltham, Mass.). LNCaP, COS, and 22RV1 cells were obtained from ATCC. Cells were treated in RPMI+10% FBS with test articles, ranging from 1 nM to 10 μM. Three days later, viable cells (LNCaP-abl, 22RV1, and COS) were measured by CellTiter-Glo assay (Promega, Madison, Wis.). For LNCaP cells, medium containing test article was changed after 3 days of treatment, and after an additional 3 days of culture, viable cells were measured by CellTiter-Glo assay.
The LNCaP cell line is androgen responsive with AR and PSA expression. It contains a T877A mutation in the AR. The 22RV1 cell line is positive for AR and PSA with additional AR splice variants and is insensitive to androgen for cell proliferation. The LNCaP-abl cell line expresses both AR and GR but is insensitive to androgen for cell proliferation. COS-7 is used as an AR negative cell line in this experiment.

Compound | IC50 (Human AR) [nM] | IC50 (GR) [nM] | inhibition at 10 µM (GR) [%] | also measured
CC1(C)C(=O)N(c2ccc(C#N)c(C(F)(F)F)c2)C(=O)N1c1ccc(CNC(=O)c2ccccn2)c(F)c1 [Compound 23] | 180 | > 10000 |  | activity at 3 µM (LNCaP-abl cells): 84%; activity at 10 µM (LNCaP-abl cells): 43%
CC1(C)C(=O)N(c2ccc(C#N)c(C(F)(F)F)c2)C(=S)N1c1ccc(CNC(=O)C2CC2)c(F)c1 [Compound 11] | 120 | > 10000 |  | activity at 3 µM (LNCaP-abl cells): 103%; activity at 10 µM (LNCaP-abl cells): 79%
Cc1ncc(C(=O)NCc2ccc(N3C(=S)N(c4ccc(C#N)c(C(F)(F)F)c4)C(=O)C3(C)C)cc2F)s1 [Compound 45] | 99 | > 10000 |  | inhibition at 1 µM (Human AR): 95%; activity at 3 µM (LNCaP-abl cells): 100%; activity at 10 µM (LNCaP-abl cells): 66%
Cc1ncsc1C(=O)NCc1ccc(N2C(=S)N(c3ccc(C#N)c(C(F)(F)F)c3)C(=O)C2(C)C)cc1Cl [Compound 32] | 120 | > 10000 |  | activity at 3 µM (LNCaP-abl cells): 93%; activity at 10 µM (LNCaP-abl cells): 62%
Cn1nccc1C(=O)NCc1ccc(N2C(=S)N(c3ccc(C#N)c(C(F)(F)F)c3)C(=O)C2(C)C)cc1F [Compound 42] | 77 | > 10000 |  | inhibition at 1 µM (Human AR): 95%; activity at 3 µM (LNCaP-abl cells): 98%; activity at 10 µM (LNCaP-abl cells): 60%
Cc1ncsc1C(=O)NCc1ncc(N2C(=S)N(c3ccc(C#N)c(C(F)(F)F)c3)C(=O)C2(C)C)cc1F [Compound 55] |  |  | 58 | 
CC1(C)C(=O)N(c2ccc(C#N)c(C(F)(F)F)c2)C(=S)N1c1ccc(CNC(=O)c2cocn2)c(F)c1 [Compound 54] |  |  | 56 | 
CN1CC(C(=O)NCc2ccc(N3C(=S)N(c4ccc(C#N)c(C(F)(F)F)c4)C(=O)C3(C)C)cc2F)C1 [Compound 63] |  |  | 0 | 
CC1(C)C(=O)N(c2ccc(C#N)c(C(F)(F)F)c2)C(=S)N1c1ccc(CNC(=O)c2ccc3[nH]ncc3c2)c(F)c1 [Compound 79] |  |  | 75 | 
CC1(C)C(=O)N(c2ccc(C#N)c(F)c2)C(=S)N1c1ccc(CNC(=O)c2ccccn2)c(F)c1 [Compound 69] | 380 | > 10000 |  | activity at 3 µM (LNCaP-abl cells): 77%; activity at 10 µM (LNCaP-abl cells): 81%
Cc1nnc(C(=O)NCc2ccc(N3C(=S)N(c4ccc(C#N)c(C(F)(F)F)c4)C(=O)C3(C)C)cc2F)o1 [Compound 62] |  |  | 0 | 
CC1(C)C(=O)N(c2cnc(C#N)c(C(F)(F)F)c2)C(=S)N1c1ccc(CNC(=O)c2cncs2)c(Cl)c1 [Compound 36] | 580 | > 10000 |  | activity at 3 µM (LNCaP-abl cells): 82%; activity at 10 µM (LNCaP-abl cells): 59%
CC(C)C(=O)NCc1ccc(N2C(=O)N(c3ccc(C#N)c(C(F)(F)F)c3)C(=O)C2(C)C)cc1F [Compound 20] | 1870 | > 10000 |  | 
Cc1ncsc1C(=O)NCc1ccc(N2C(=S)N(c3ccc(C#N)c(C(F)(F)F)c3)C(=O)C23CCC3)cc1F [Compound 65] | 64 | > 10000 |  | activity at 3 µM (LNCaP-abl cells): 94%; activity at 10 µM (LNCaP-abl cells): 83%
CC1(C)C(=O)N(c2cnc(C#N)c(C(F)(F)F)c2)C(=S)N1c1ccc(CNC(=O)c2ccccn2)c(F)c1 [Compound 50] |  |  |  | inhibition at 10 µM (GR; 10 μM single concentration): 69%
Cn1nccc1C(=O)NCc1ccc(N2C(=S)N(c3ccc(C#N)c(F)c3)C(=O)C2(C)C)cc1F [Compound 74] |  |  |  | inhibition at 10 µM (GR; 10 μM single concentration): 17%
CC#C[C@]1(O)CC[C@H]2[C@@H]3CCC4=CC(=O)CCC4=C3[C@@H](c3ccc(N(C)C)cc3)C[C@@]21C [RU486, reference compound] |  |  |  | GR antagonist assay, % of vehicle (GR): 13%; inhibition at 1 µM (GR; COS-7, read-out: GR antagonism inhibition at 1 μM): 72.8%
CC1(C)C(=O)N(c2ccc(C#N)c(C(F)(F)F)c2)C(=S)N1c1ccc(CNC(=O)c2ccccc2F)c(F)c1 [Compound 47] |  |  | 46 | 
CC1(C)C(=O)N(c2ccc(C#N)c(C(F)(F)F)c2)C(=S)N1c1ccc(CNS(=O)(=O)c2ccccn2)c(F)c1 [Compound 75] |  |  | 40 | 

Compound | IC50 (Human AR) [nM] | IC50 (GR) [nM] | inhibition at 10 µM (GR) [%] | also measured
CC1(C)C(=O)N(c2ccc(C#N)c(C(F)(F)F)c2)C(=S)N1c1ccc(CNC(=O)c2ncc[nH]2)c(F)c1 [Compound 3] | 180 | > 10000 |  | 
CC1(C)C(=O)N(c2ccc(C#N)c(C(F)(F)F)c2)C(=S)N1c1ccc(CNC(=O)c2cncnc2)c(F)c1 [Compound 15] | 320 | > 10000 |  | activity at 3 µM (LNCaP-abl cells): 81%; activity at 10 µM (LNCaP-abl cells): 70%
CC(C)C(=O)NCc1ccc(N2C(=S)N(c3ccc(C#N)c(C(F)(F)F)c3)C(=O)C2(C)C)cc1F [Compound 7] | 180 | > 10000 |  | activity at 3 µM (LNCaP-abl cells): 67%; activity at 10 µM (LNCaP-abl cells): 73%
CC1(C)C(=O)N(c2ccc(C#N)c(C(F)(F)F)c2)C(=O)N1c1ccc(CNC(=O)c2cncs2)cc1 [Compound 27] | 496 | > 10000 |  | 
CC1(C)C(=O)N(c2ccc(C#N)c(C(F)(F)F)c2)C(=S)N1c1ccc(CNC(=O)c2ccc3cn[nH]c3c2)c(F)c1 [Compound 80] |  |  | 38 | 
CC1(C)C(=O)N(c2ccc(C#N)c(C(F)(F)F)c2)C(=S)N1c1ccc(CNC(=O)c2ncccn2)c(Cl)c1 [Compound 31] | 62 | > 10000 |  | 
CC1(C)C(=O)N(c2ccc(C#N)c(C(F)(F)F)c2)C(=S)N1c1ccc(CNC(=O)c2cncs2)c(F)c1 [Compound 5] | 93 | > 10000 |  | activity at 3 µM (LNCaP-abl cells): 99%; activity at 10 µM (LNCaP-abl cells): 96%
CC1(C)C(=O)N(c2ccc(C#N)c(C(F)(F)F)c2)C(=O)N1c1ccc(CNC(=O)C2CC2)c(F)c1 [Compound 24] | 1090 | > 10000 |  | 
CC1(C)C(=O)N(c2ccc(C#N)c(C(F)(F)F)c2)C(=S)N1c1ccc(CNC(=O)c2ccncn2)c(F)c1 [Compound 14] |  |  | 22 | 
CC1(C(=O)NCc2ccc(N3C(=S)N(c4ccc(C#N)c(C(F)(F)F)c4)C(=O)C3(C)C)cc2F)CC1 [Compound 52] |  |  | 56 | 
CC1(C)C(=O)N(c2ccc(C#N)c(C(F)(F)F)c2)C(=S)N1c1cnc(CNC(=O)c2ccccn2)c(F)c1 [Compound 53] |  |  | 66 | 
Cc1ncsc1C(=O)NCc1ccc(N2C(=S)N(c3cnc(C#N)c(C(F)(F)F)c3)C(=O)C2(C)C)cc1F [Compound 51] |  |  |  | inhibition at 1 µM (Human AR): 93%; inhibition at 10 µM (GR; 10 μM single concentration): 35%
CC1(C)C(=O)N(c2ccc(C#N)c(C(F)(F)F)c2)C(=O)N1c1ccc(CNC(=O)c2ncccn2)cc1 [Compound 33] | 304 |  | 3 | 
CC1(C)C(=O)N(c2cnc(C#N)c(C(F)(F)F)c2)C(=S)N1c1ccc(CNC(=O)c2ncccn2)c(Cl)c1 [Compound 30] | 73 | > 10000 |  | 
Cc1ccccc1C(=O)NCc1ccc(N2C(=S)N(c3ccc(C#N)c(C(F)(F)F)c3)C(=O)C2(C)C)cc1F [Compound 43] |  |  | 0 | inhibition at 1 µM (Human AR): 94%
CC1(C)C(=O)N(c2ccc(C#N)c(C(F)(F)F)c2)C(=S)N1c1ccc(CN2Cc3ncccc3C2=O)c(F)c1 [Compound 66, 4-(3-(3-fluoro-4-((5-oxo-5H-pyrrolo[3,4-b]pyridin-6(7H)-yl)methyl)phenyl)-4,4-dimethyl-5-oxo-2-thioxoimidazolidin-1-yl)-2-(trifluoromethyl)benzonitrile] |  |  |  | inhibition at 1 µM (Human AR): 90%; GR antagonist assay, % of vehicle (GR): 31%
CC1CC1C(=O)NCc1ccc(N2C(=S)N(c3ccc(C#N)c(C(F)(F)F)c3)C(=O)C2(C)C)cc1F (stereo not drawn) [Compound 41] |  |  |  | inhibition at 1 µM (Human AR): 88%
Cc1cccnc1C(=O)NCc1ccc(N2C(=S)N(c3ccc(C#N)c(C(F)(F)F)c3)C(=O)C2(C)C)cc1F [Compound 40] |  |  | 48 | 
CC1(C)C(=O)N(c2ccc(C#N)c(F)c2)C(=S)N1c1ccc(CN2Cc3ncccc3C2=O)c(F)c1 [Compound 78, 2-fluoro-4-(3-(3-fluoro-4-((5-oxo-5,7-dihydro-6H-pyrrolo[3,4-b]pyridin-6-yl)methyl)phenyl)-4,4-dimethyl-5-oxo-2-thioxoimidazolidin-1-yl)benzonitrile] |  |  |  | inhibition at 10 µM (GR; 10 μM single concentration): 0%
